The first test deals with tau stress granules. Briefly: SY5Y-tT1 tau arsenite assay (tau stress granules per cell). The note with it: SY5Y-tT1 cells, 2 hours compound, 90 minutes arsenite, 50% reduction of granules per cell, read-out: IC50, Inhibitor Activity of Tau Stress Granules. In kind it is cell-based. As to the method:
Example 91: In Vitro Efficacy Assay of Exemplary Compounds—SY5Y-tT1 Tau Arsenite/Thapsigargin Assay
• Before harvesting cells—checked to see if cells are ~80% confluency in their flask • 1. Aspirated growth media from flask. • 2. Added 4 mL of (0.25%) trypsin-EDTA (REF: 25200-056) • 3. Placed in 37° C. incubator for 5 minutes. • 4. Removed from incubator and added 11 mL growth media, washing any remaining cells adhered to the bottom of the flask. • 5. Transferred cell containing media to a 50 mL conical tube and spun for 5 minutes at 800 rpm. • 6. Aspirated supernatant and added 5 mL of growth media to cell pellet, triturating to make a homogenous cell solution. • 7. After counting cells, followed one of these plating paradigms: • (A) If treating with arsenite, plated cells at […] with tetracycline solution (5 mg/mL) added to cell solution at 1:5000 • (B) If treating with thapsigargin, plated cells at 4,000 cells/well with tetracycline solution (5 mg/mL) added to cell solution at 1:5000 • 8. Incubated at 37° C. for 48 hours.
• Solubilized all compounds to 10 mM prior to making dilution plates • 1. To a 96-well U-bottom plate (Falcon Non-Tissue Culture Treated Plates REF: 351177) added 120 μL growth media to all 96 wells, with an additional 58.2 μL to row A. • 2. Added 1.8 μL of 10 mM compound stock to wells A1-11, adding 1.8 μL of 10 mM PERKi stock (Selleck Chemistry GSK2606414 Cat No. S7307) as the control. • 3. Serially diluted 60 μL from row A down through each row, finishing with 180 μL total volume in row H. • 4. Transferred 12.5 μL of each dilution plate well to the correlating wells in cell plate, being careful not to touch cells adhered to bottom of the plate. • 5. Incubated for 2 hours.
• 1. Added 720 μL of 0.05 M sodium arsenite solution (CAS #: 7784-46-5) to 10 mL of growth media for a final concentration of […] arsenite solution, mix well. • 2. Added 12.5 μL of arsenite solution to all wells of compounds treated plate intended for arsenite treatment. • 3. Incubated at 37° C. for 90 minutes.
• Before beginning this part of the protocol: • Made 1×PBS by diluting 10× stock (10×, Phosphate buffered saline, Fisher #BP399— • 4) in sterile deionized water. • Diluted paraformaldehyde (16% Paraformaldehyde solution, Electron Microscopy Sciences #15710-S) to 4% in 1×PBS. • Diluted Hoechst stain (Life Technologies #H3570) 1:10,000 in 1×PBS (1 μL Hoechst per 10 mL 1×PBS). • Both solutions were protected from light. • 1) After compound treatment, aspirated media from cell plates and gently added in 50 μL of 4% paraformaldehyde for 10 min protected from light at room temperature. • 2) Aspirated paraformaldehyde solution and gently added 50 μL of 1:10,000 Hoechst solution to each well and incubated for 10 min protected from light at room temperature. • 3) Aspirated Hoechst solution and gently added 100 μL 1×PBS. Cover the plate with aluminum film (VWR #60941-126). • 4) Stored at 4° C. or used immediately for imaging on ThermoFisher CX7 imager.
Exemplary compounds of the disclosed herein were evaluated for efficacy for inhibitor activity of tau stress granules in the arsenite assay and quantified as drug concentration providing a 50% reduction (IC50) of granules per cell is shown in Table 4.
In Table 4 below, A indicates an IC50 (μM)<0.5 μM, B indicates an IC50 (μM) 0.5 μM to <1 μM, C indicates an IC50 (μM) 1 μM to <2 μM, and D indicates an IC50 (μM) 2 μM to <6 μM.
The term IC50 denotes the concentration that gives 50% inhibition. On to `Cc1cc(-c2ccc(C3(N(C)C)CCOCC3)cc2)sc1C(=O)N1CC[C@H](N)C1` [Compound 166, (S)-(3-aminopyrrolidin-1-yl)(5-(4-(4-(dimethylamino)tetrahydro-2H-pyran-4-yl)phenyl)-3-methylthiophen-2-yl)methanone], for which the IC50 was < 500 nM.

On to `Cc1cc(-c2cnc(C3CCN(C)CC3)nc2)sc1C(=O)N1CC[C@H](N)C1` [Compound 124, (S)-(3-aminopyrrolidin-1-yl)(3-methyl-5-(2-(1-methylpiperidin-4-yl)pyrimidin-5-yl)thiophen-2-yl)methanone], for which the IC50 is < 500 nM.

On to `Cc1cc(-c2ccc(C3CCN(C)CC3)cc2F)sc1C(=O)N1CC[C@H](N)C1` [Compound 128, (S)-(3-aminopyrrolidin-1-yl)(5-(2-fluoro-4-(1-methylpiperidin-4-yl)phenyl)-3-methylthiophen-2-yl)methanone], for which the IC50 lay in the range of 1000 to 2000 nM.

With `Cc1cc(-c2ccc(N3CCN(C4CCOC4)CC3)cc2)sc1C(=O)N1CC[C@H](N)C1` (stereo partly drawn) [Compound 152, ((S)-3-aminopyrrolidin-1-yl)(3-methyl-5-(4-(4-(tetrahydrofuran-3-yl)piperazin-1-yl)phenyl)thiophen-2-yl)methanone], the IC50 was 1000 to 2000 nM.

Take `C=Cc1cc(-c2ccc(C3CCN(C(C)C)CC3)cc2)sc1C(=O)N1CC[C@H](N)C1` [Compound 117, (S)-(3-aminopyrrolidin-1-yl)(5-(4-(1-isopropylpiperidin-4-yl)phenyl)-3-vinylthiophen-2-yl)methanone]: the IC50 lay within 1000 to 2000 nM.

On to `Cc1cc(-c2ccc(C3CCNCC3)c(F)c2)sc1C(=O)N1CC[C@H](N)C1` [Compound 140, (S)-(3-aminopyrrolidin-1-yl)(5-(3-fluoro-4-(piperidin-4-yl)phenyl)-3-methylthiophen-2-yl)methanone], for which the IC50 lay in the range of 500 to 1000 nM.

For `COc1cc(-c2cc(C)c(C(=O)N3CC[C@H](N)C3)s2)ccc1C1CCN(C)CC1` [Compound 111, (S)-(3-aminopyrrolidin-1-yl)(5-(3-methoxy-4-(1-methylpiperidin-4-yl)phenyl)-3-methylthiophen-2-yl)methanone], the IC50 was 2000 to 6000 nM.

On to `Cc1cc(-c2ccc(C3CCN(C)CC3)cc2OC(F)(F)F)sc1C(=O)N1CC[C@H](N)C1` [Compound 103, (S)-(3-aminopyrrolidin-1-yl)(3-methyl-5-(4-(1-methylpiperidin-4-yl)-2-(trifluoromethoxy)phenyl)thiophen-2-yl)methanone], for which the IC50 lay within 2000 to 6000 nM.

For the compound `Cc1cc(-c2ccc(N3CCN(C4CCC4)CC3)cc2)sc1C(=O)N1CC[C@H](N)C1` [Compound 158, (S)-(3-aminopyrrolidin-1-yl)(5-(4-(4-cyclobutylpiperazin-1-yl)phenyl)-3-methylthiophen-2-yl)methanone], the half-inhibitory concentration (IC50) lay in the range of 1000 to 2000 nM.

Take `Cc1cc(-c2ccc(C3CCN(CC4CCOCC4)CC3)cc2)sc1C(=O)N1CC[C@H](N)C1` [Compound 147, (S)-(3-aminopyrrolidin-1-yl)(3-methyl-5-(4-(1-((tetrahydro-2H-pyran-4-yl)methyl)piperidin-4-yl)phenyl)thiophen-2-yl)methanone]: the 50% inhibitory concentration (IC50) is < 500 nM.

As to `Cc1cc(-c2ccc(C3CCN(C)CC3)cn2)sc1C(=O)N1CC[C@H](N)C1` [Compound 104, (S)-(3-aminopyrrolidin-1-yl)(3-methyl-5-(5-(1-methylpiperidin-4-yl)pyridin-2-yl)thiophen-2-yl)methanone], the IC50 fell in the range of 1000 to 2000 nM.

As for `CCCc1cc(-c2ccc(C3CCN(C(C)C)CC3)cc2)sc1C(=O)N1CC[C@H](N)C1` [Compound 110, (S)-(3-aminopyrrolidin-1-yl)(5-(4-(1-isopropylpiperidin-4-yl)phenyl)-3-propylthiophen-2-yl)methanone], the IC50 was 1000 to 2000 nM.

With `Cc1cc(-c2ccc3c(c2)CCOC3)sc1C(=O)N1CC[C@H](N)C1` [Compound 165, (S)-(3-aminopyrrolidin-1-yl)(5-(isochroman-6-yl)-3-methylthiophen-2-yl)methanone], the IC50 is 500 to 1000 nM.

As for `Cc1cc(-c2ccc(N3CCN(C4CCOCC4)CC3)cc2)sc1C(=O)N1CC[C@H](N)C1` [Compound 151, (S)-(3-aminopyrrolidin-1-yl)(3-methyl-5-(4-(4-(tetrahydro-2H-pyran-4-yl)piperazin-1-yl)phenyl)thiophen-2-yl)methanone], the IC50 fell in the range of 2000 to 6000 nM.

Regarding `Cc1cc(-c2ccc(N3CCNCC3)cc2)sc1C(=O)N1CC[C@H](N)C1` [Compound 162, (S)-(3-aminopyrrolidin-1-yl)(3-methyl-5-(4-(piperazin-1-yl)phenyl)thiophen-2-yl)methanone], the IC50 fell in the range of 1000 to 2000 nM.

As to `Cc1cc(-c2ccc(C3CCN(CC4CCCCO4)CC3)cc2)sc1C(=O)N1CC[C@H](N)C1` (stereo partly drawn) [Compound 119, ((S)-3-aminopyrrolidin-1-yl)(3-methyl-5-(4-(1-((tetrahydro-2H-pyran-2-yl)methyl)piperidin-4-yl)phenyl)thiophen-2-yl)methanone], the IC50 fell in the range of 500 to 1000 nM.

Consider `Cc1cc(-c2ccc(C3CCN(C4COC4)CC3)cc2)sc1C(=O)N1CC[C@H](N)C1` [Compound 164, (S)-(3-aminopyrrolidin-1-yl)(3-methyl-5-(4-(1-(oxetan-3-yl)piperidin-4-yl)phenyl)thiophen-2-yl)methanone], for which the IC50 is < 500 nM.

Regarding `Cc1cc(-c2ccc(C3CCN(C)CC3)c(OC(F)(F)F)c2)sc1C(=O)N1CC[C@H](N)C1` [Compound 112, (S)-(3-aminopyrrolidin-1-yl)(3-methyl-5-(4-(1-methylpiperidin-4-yl)-3-(trifluoromethoxy)phenyl)thiophen-2-yl)methanone], the IC50 was in the range of 2000 to 6000 nM.

Turning to `Cc1cc(-c2ccc(C3CCN(C)CC3)c(Cl)c2)sc1C(=O)N1CC[C@H](N)C1` [Compound 135, (S)-(3-aminopyrrolidin-1-yl)(5-(3-chloro-4-(1-methylpiperidin-4-yl)phenyl)-3-methylthiophen-2-yl)methanone], the IC50 fell in the range of 2000 to 6000 nM.

`CCc1cc(-c2ccc(C3CCN(C(C)C)CC3)cc2)sc1C(=O)N1CC[C@H](N)C1` [Compound 118, (S)-(3-aminopyrrolidin-1-yl)(3-ethyl-5-(4-(1-isopropylpiperidin-4-yl)phenyl)thiophen-2-yl)methanone]: the IC50 lay in the range of 1000 to 2000 nM.

Regarding `Cc1cc(-c2ccc(C3CCN(C)CC3)nc2)sc1C(=O)N1CC[C@H](N)C1` [Compound 108, (S)-(3-aminopyrrolidin-1-yl)(3-methyl-5-(6-(1-methylpiperidin-4-yl)pyridin-3-yl)thiophen-2-yl)methanone], the IC50 was in the range of 500 to 1000 nM.

Turning to `Cc1cc(-c2cc(C)c(C(=O)N3CC[C@H](N)C3)s2)ccc1C1CCNCC1` [Compound 149, (S)-(3-aminopyrrolidin-1-yl)(3-methyl-5-(3-methyl-4-(piperidin-4-yl)phenyl)thiophen-2-yl)methanone], the IC50 is < 500 nM.

In a further test the test system is TDP-43 aggregation. Briefly: TDP-43 aggregation assay in SY5Y TDP-43WT cells (high content imaging). The note with it: Homo sapiens, tetracycline induction 24 hrs, 1 hour compound pre-treatment, sodium arsenite 23 hrs, 8-point dose curve, percentage of cells with TDP-43 aggregates, read-out: IC50, Inhibition of TDP-43 Aggregation. In kind it is cell-based. The procedure, abridged:
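Tetracycline-inducible eGFP-tagged wild-type human TDP-43 in SH-SY5Y cells, induced 24 h ([…]), compound pre-treated 1 h, then sodium arsenite […] for 23 h. Fixed cells imaged; percentage of DAPI-counted cells with aggregates gives IC50 from 8-point curves.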
For the compound `COc1cc(-c2cc(C)c(C(=O)N3CC[C@H](N)C3)s2)ccc1C1CCN(C2CCOCC2)CC1` [Compound 260, (S)-(3-aminopyrrolidin-1-yl)(5-(3-methoxy-4-(1-(tetrahydro-2H-pyran-4-yl)piperidin-4-yl)phenyl)-3-methylthiophen-2-yl)methanone], the IC50 lay in the range of 1000 to 2000 nM.

`CCCc1ccc(-c2cc(C)c(C(=O)N3CC[C@H](N)C3)s2)cc1` [Compound 227]: the half-maximal inhibitory concentration (IC50) lay within 2000 to 6000 nM.

Source of the values: US20260258025A1, “INHIBITORS OF TDP-43 AND TAU AGGREGATION” (Aquinnah Pharmaceuticals, inc., priority 2023, published 2026).
